Assay results from patent US20140073634A1 (Institute For Applied Cancer Science/The University of …, priority 2012, published 2014).

Assays:
HN5 xenograft = test: HN5 head and neck xenograft with fractionated irradiation; format: in vivo, CD-1 nude mice; settings: 60 mg/kg daily oral and/or 4 Gy irradiation for 5 days
Description: HN5 head and neck cells were injected intramuscularly into CD-1 nude mice. Upon tumors reaching 8.5 mm in diameter, animals were enrolled in the study and received either vehicle or the compound of Example 7 (days 0-5) with or without a 4 Gy dose 6 hours after the compound of Example 7 on days 1-5 of the study (FIG. 12). Tumor size was measured every other day to determine the rate of growth (FIG. 13).

[1] = system: OCI-AML3 cells constitutively expressing luciferase; test: OCI-AML3 leukemia model in NSG mice (IVIS imaging, survival); format: in vivo, NSG nude mice
Description: (§1) The OCI-AML3 cell line was treated with various concentrations of the compound of Example 7 for 7 days and the percent of viable cells normalized to control cells treated with DMSO (FIG. 8). CD45+ primary AML cells from an AML patient or CD45+ normal bone marrow cells from a healthy volunteer were treated with the compound of Example 7 for 4 days and the number of viable cells and percentage of apoptotic (annexin V) were determined (FIGS. 9a and 9b). […] OCI-AML3 cells constitutively expressing luciferase were tail vein injected in NSG nude mice. 17 days after cell injection, luciferin was injected into animals and luciferase signal was measured using an IVIS imaging system to determine tumor burden and for randomization of subjects into study groups. On day 18, animals began receiving daily oral doses of vehicle or 60 mpk of the compound of Example 7 were started and continued throughout the study. On day 28, imaging was performed again to determine tumor burden (FIG. 10).

[2] = system: CD45+ primary AML cells from an AML patient; test: Primary AML cells, viable cells and annexin V; format: cell-based, human; settings: 4 days
Description: as §1

NB-1 xenografts = test: NB-1 xenograft model; format: in vivo, CD-1 nude mice; settings: 40 mg/kg daily oral
Excerpt: To establish activity and provide in vivo proof of concept, NB-1 cells were implanted into CD-1 nude mice and treated with vehicle or 40 mpk of the compound of Example 7 po daily hen tumors reached 400-500 mm^3. Tumor size was measure 3×/week using caliper measurements (FIG. 4).

Gli56 cells = test: Glioblastoma cellular assay; format: cell-based; settings: Gli56, various concentrations
Excerpt: (§2) NB-1, Gli56, and D423 cell lines are deleted for ENO-1 (GLI56 and D423) or PGD, which renders them with reduced glycolytic capacity (Muller, F. et al., Nature, 2012, 488, 337-42).

OCI-AML3 cell line = test: Acute myeloid leukemia cell line viability; format: cell-based, human; settings: OCI-AML3, various concentrations, 7 days
Description: as §1

D423 cells = test: Cellular assay in ENO-1 deleted D423 cells; format: cell-based; settings: D423, various concentrations
Excerpt: as §2

TMD8 cells = test: Diffuse large B-cell lymphoma (DLBCL) assay, viable cells by Guava ViaCount; format: cell-based; settings: varying concentrations, 7 days
Description: Diffuse Large B-Cell Lymphoma (DLBCL) Assay
Equal number of TMD8 cells were plated and treated with varying concentrations of the compound of Example 7 for 7 days. Percent of viable cells was determined using Guava ViaCount reagents (EMD Millipore cat #4000-0040) that contains proprietary dyes that enable the determination of the number of live and dead cells in a sample (FIG. 1).

[3] = system: CD45+ normal bone marrow cells from a healthy volunteer; test: Normal bone marrow cells, viable cells and annexin V; format: cell-based, human; settings: 4 days
Description: as §1

H460 xenografts = test: H460 non-small cell lung cancer xenograft; format: in vivo, CD-1 nude mice
Description: Non-Small Cell Lung Cancer: H460 cells were implanted subcutaneously in CD-1 nude mice and treated with the compound of Example 7 (40 mpk qdx 14) delivered by oral gavage for 14 days. Animals were randomized into study groups and the study initiated when the average tumor volume was 400 mm^3. During treatment, tumor volume was measured three times per week to determine tumor growth over the course of the study (FIG. 5). Nine tumor bearing mice were included in each group. On day 15, 3 hours prior to take down, hypoxyprobe (Hypoxyprobe, Inc. cat #HP3) was injected into mice. Tumor sections were stained (dark areas) for the level of hypoxia utilizing an anti-hypoxyprobe antibody and standard IHC methods (FIG. 6). The same tumors were stained for the expression of HIF regulated gene carbonic anhydrase IX (CA9) using standard IHC methods (FIG. 7).

293T-HRE-GFP-luc cells = test: Cell-based reporter assay for IC50 determinations (HRE-luciferase, hypoxia); settings: 6 hrs hypoxia (1% O2), luminescence
How it was run: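 IC50s come from four-parameter logistic fits of luminescence. Compounds in 1:3 DMSO series were added to 293T-HRE-GFP-luc cells, 30 min normoxia preceding 6 hrs at 1% O2, 37° C; HRE-luciferase signal was then measured with Steadylite Plus reagent.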

NB-1 cells = test: Neuroblastoma cellular assay; format: cell-based; settings: NB-1, various concentrations
Excerpt: as §2

CN1CCN(c2cc(Cn3cc(-c4nc(-c5ccc(OC(F)(F)F)cc5)no4)ccc3=O)ccn2)CC1 [Example 7, 1-methyl-4-(4-((2-oxo-5-(3-(4-(trifluoromethoxy)phenyl)-1,2,4-oxadiazol-5-yl)pyridin-1(2H)-yl)methyl)pyridin-1-ium-2-yl)piperazin-1-ium bis-trifluoroacetate]
tumor diameter, combination with irradiation (HN5 xenograft): enhance fractionated irradidation
disease burden (IVIS imaging) ([1]; 60 mg/kg daily oral, NSG mice): reduces disease burden
survival ([1]; 60 mpk daily oral, relative to vehicle): significantly increased their survival
number of viable cells [2]: significant decrease
percentage of apoptotic (annexin V) cells [2]: significant increase
tumor growth (NB-1 xenografts): reduces the tumor growth
cell death (Gli56 cells): cell death readily apparent
cell number (Gli56 cells): significantly reduced
percent of viable cells normalized to DMSO control (OCI-AML3 cell line): reduced number of viable cells
cell number (D423 cells): significantly reduced
Percent of viable cells (TMD8 cells): respond robustly
response (viable cells, annexin V) [3]: minimal response
tumor growth (H460 xenografts; 40 mpk qdx14 oral gavage): inhibited the growth of the H460 xenografts
carbonic anhydrase IX (CA9) protein expression in tumor (IHC) (H460 xenografts; 40 mpk qdx14 oral, day 15): elimination of hypoxia and CA9 protein expression
level of hypoxia in tumor (hypoxyprobe IHC) (H460 xenografts; 40 mpk qdx14 oral, day 15): elimination of hypoxia
IC50 (293T-HRE-GFP-luc cells): < 100 nM
cell death (NB-1 cells): cell death readily apparent
cell number (NB-1 cells): significantly reduced

CC(C)Oc1ccc(-c2nnc(-c3ccc(=O)n(Cc4cccc(C(C)(C)O)c4)c3)o2)cc1 [Example 263, 1-{[3-(2-hydroxypropan-2-yl)phenyl]methyl}-5-{5-[4-(propan-2-yloxy)phenyl]-1,3,4-oxadiazol-2-yl}-1,2-dihydropyridin-2-one]
IC50 (293T-HRE-GFP-luc cells; 6 h): 100 to 1000 nM

CC(C)Oc1ccc(-c2nnc(-c3ccc(=O)n(Cc4cccc(N5CCC(S(C)(=O)=O)CC5)c4)c3)o2)cc1 [Example 264, 1-{[3-[4-methanesulfonylpiperidin-1-yl)phenyl]methyl}-5-{5-[4-(propan-2-yloxy)phenyl]-1,3,4-oxadiazol-2-yl}-1,2-dihydropyridin-2-one]
IC50 (293T-HRE-GFP-luc cells; 6 h): 100 to 1000 nM

COc1cccc(Cn2c(C)ccc(-c3nc(-c4ccc(OC(F)(F)F)cc4)no3)c2=O)c1 [Example 265, 1-[(3-methoxyphenyl)methyl]-6-methyl-3-{3-[4-(trifluoromethoxy)phenyl]-1,2,4-oxadiazol-5-yl}-1,2-dihydropyridin-2-one]
IC50 (293T-HRE-GFP-luc cells; 6 h): 100 to 1000 nM

Cc1ccc(-c2nc(-c3ccc(OC(F)(F)F)cc3)no2)c(=O)n1Cc1cccc(OC(F)F)c1 [Example 266, 1-{[3-(difluoromethoxy)phenyl]methyl}-6-methyl-3-{3-[4-(trifluoromethoxy)phenyl]-1,2,4-oxadiazol-5-yl}-1,2-dihydropyridin-2-one]
IC50 (293T-HRE-GFP-luc cells; 6 h): 100 to 1000 nM

Cc1ccc(-c2nc(-c3ccc(OC(F)(F)F)cc3)no2)c(=O)n1Cc1cccc(S(C)(=O)=O)c1 [Example 267, 1-[(3-methanesulfonylphenyl)methyl]-6-methyl-3-{3-[4-(trifluoromethoxy)phenyl]-1,2,4-oxadiazol-5-yl}-1,2-dihydropyridin-2-one]
IC50 (293T-HRE-GFP-luc cells; 6 h): 100 to 1000 nM

Cc1ccc(-c2nc(-c3ccc(OC(F)(F)F)cc3)no2)c(=O)n1Cc1cccc(S(N)(=O)=O)c1 [Example 268, 3-[(6-methyl-2-oxo-3-{3-[4-(trifluoromethoxy)phenyl]-1,2,4-oxadiazol-5-yl}-1,2-dihydropyridin-1-yl)methyl]benzene-1-sulfonamide]
IC50 (293T-HRE-GFP-luc cells; 6 h): 100 to 1000 nM

CN1CCN(c2cccc(Cn3cccc(-c4nc(-c5ccc(OC(F)(F)F)cc5)no4)c3=O)c2)CC1 [Example 270, 1-{[3-(4-methylpiperazin-1-yl)phenyl]methyl}-3-{3-[4-(trifluoromethoxy)phenyl]-1,2,4-oxadiazol-5-yl}-1,2-dihydropyridin-2-one]
IC50 (293T-HRE-GFP-luc cells; 6 h): < 100 nM
